From patent US9850283B2, “Macrocyclic inhibitors of the PD-1/PD-L1 and CD80(B7-1)/PD-L1 protein/protein interactions” (BRISTOL-MYERS SQUIBB COMPANY, priority 2013, dated 2017)
Where two headings read alike, the source gives them in different places. Positions of bridges follow the written chain, without caps; N, C: chain ends. Non-standard residues stand in square brackets, D forms with d. Residues, ends and D or L forms follow the SMILES beside them. Phe(3,4,5-F3) = N[C@@H](Cc1cc(F)c(F)c(F)c1)C(=O)O; Bip = N[C@@H](Cc1ccc(-c2ccccc2)cc1)C(=O)O; Bta = N[C@@H](Cc1csc2ccccc12)C(=O)O; Hyp = O=C(O)[C@@H]1C[C@@H](O)CN1; NMeF = CN[C@@H](Cc1ccccc1)C(=O)O; 4Pal = N[C@@H](Cc1ccncc1)C(=O)O; dHyp = O=C(O)[C@H]1C[C@H](O)CN1; NMeNle = CCCC[C@H](NC)C(=O)O; dPip = O=C(O)[C@H]1CCCCN1; NMeA = CN[C@@H](C)C(=O)O; Orn = NCCC[C@H](N)C(=O)O; Dab = NCC[C@H](N)C(=O)O; Dap = NC[C@H](N)C(=O)O; Sar = CNCC(=O)O

Columns and labels:
[1] = molecular target: T1, Human PD-L1/PD-1 (Homo sapiens, UniProt Q9NZQ7); assay: HTRF PD-1-Ig/PD-L1-His binding assay (human PD-L1)
T1 construct: made in house; host or cells: HEK293T
T1 sequence (Q9NZQ7 with tags, fused parts or gaps): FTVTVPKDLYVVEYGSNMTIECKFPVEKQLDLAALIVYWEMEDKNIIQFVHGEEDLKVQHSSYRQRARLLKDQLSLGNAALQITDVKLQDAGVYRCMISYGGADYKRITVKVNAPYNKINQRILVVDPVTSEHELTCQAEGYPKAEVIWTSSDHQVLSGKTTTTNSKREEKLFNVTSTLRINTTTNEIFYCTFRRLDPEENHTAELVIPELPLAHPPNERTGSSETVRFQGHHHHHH
In short: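 Soluble Fc-fused PD-1 and His-tagged PD-L1 (truncated before the transmembrane region) were combined in dPBS with 0.1% (w/v) BSA and 0.05% (v/v) Tween-20. Binding was read by HTRF using europium cryptate anti-Ig antibody (1 nM final) and APC anti-His antibody (20 nM final).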

[2] = molecular target: T2, LK35.2-hPD-L1 cells / PE-labeled PD-1-Ig (Homo sapiens, UniProt Q9NZQ7); assay: LK35.2-hPD-L1 cell binding high-content screening assay; format: cell-based; conditions: cell binding assay, cell line not given
T2 construct: expressed in transfected cells; host or cells: LK35.2 mouse B cell line
T2 sequence (Q9NZQ7 19-290): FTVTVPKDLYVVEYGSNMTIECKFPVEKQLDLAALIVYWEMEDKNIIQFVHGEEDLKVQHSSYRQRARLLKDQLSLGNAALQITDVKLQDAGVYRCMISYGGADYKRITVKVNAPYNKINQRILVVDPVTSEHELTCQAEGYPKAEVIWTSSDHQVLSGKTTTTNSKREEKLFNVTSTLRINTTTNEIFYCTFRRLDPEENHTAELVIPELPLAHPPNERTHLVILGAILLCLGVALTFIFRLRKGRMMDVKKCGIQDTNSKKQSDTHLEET
In short: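 Mouse LK35.2 B cells stably overexpressing human PD-L1 were cultured overnight in RPMI with 10% FCS, then given compound and PE-labeled human PD-1-Ig (1 nM final) for 1 h at 37 °C. After three dPBS washes, bound fluorescence was quantified by high-content imaging.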

[3] = cluster symbol, read-out: HTRF IC50 cluster
[4] = cluster symbol, read-out: CBA IC50 cluster
[5] = value given instead of cluster, read-out: HTRF IC50 value

| IC50 [1, 3] [nM] | IC50 [2, 4] [nM] | IC50 [1, 5] [nM] | IC50 ([2]; value given instead of cluster, read-out: CBA IC50 value) [nM] | SMILES |
| --- | --- | --- | --- | --- |
| 6.76 to 30.3 | 4.78 to 72.9 | – | – | CCCC[C@H]1C(=O)N(C)CC(=O)N[C@@H](CC(N)=O)C(=O)N[C@@H](C(C)C)C(=O)N(C)[C@@H](Cc2ccccc2)C(=O)N[C@@H](Cc2ccc(O)cc2)C(=O)N(C)CC(=O)N[C@@H](Cc2c[nH]c3ccccc23)C(=O)N[C@@H](Cc2ccc(O)cc2)C(=O)N[C@@H](CCCN)C(=O)N[C@H](C(=O)NCC(N)=O)CSCC(=O)N[C@@H](Cc2ccccc2)C(=O)N[C@@H](Cc2ccncc2)C(=O)N1C [Example 3610] ({CH2CO}-F[4Pal][NMeNle][Sar]NV[NMeF]Y[Sar]WY[Orn]CG-NH2; thioether N-13) |
| > 30.5 | > 74.3 | – | – | CCCC[C@H]1C(=O)N(C)CC(=O)N[C@@H](CC(N)=O)C(=O)N[C@@H](C(C)C)C(=O)N(C)[C@@H](Cc2ccccc2)C(=O)N[C@@H](Cc2ccc(O)cc2)C(=O)N(C)CC(=O)N[C@@H](Cc2c[nH]c3ccccc23)C(=O)N[C@@H](Cc2ccc(O)cc2)C(=O)N[C@@H](CCCN)C(=O)N[C@H](C(=O)NCC(N)=O)CSCC(=O)N[C@@H](Cc2ccccc2)C(=O)N[C@@H](Cc2ccc(-c3ccccc3)cc2)C(=O)N1C [Example 3611] ({CH2CO}-F[Bip][NMeNle][Sar]NV[NMeF]Y[Sar]WY[Orn]CG-NH2; thioether N-13) |
| 0.385 to 6.74 | 0.158 to 4.71 | – | – | CCCC[C@H]1C(=O)N2C[C@@H](O)C[C@@H]2C(=O)N[C@@H](CC(N)=O)C(=O)N[C@@H](C(C)C)C(=O)N(C)[C@@H](Cc2ccccc2)C(=O)N[C@@H](Cc2ccc(O)cc2)C(=O)N2CCCC[C@@H]2C(=O)N[C@@H](Cc2c[nH]c3ccccc23)C(=O)N[C@@H](Cc2ccc(O)cc2)C(=O)N[C@@H](CCCN)C(=O)N[C@H](C(=O)NCC(N)=O)CSCC(=O)N[C@@H](Cc2cc(F)c(F)c(F)c2)C(=O)N(C)[C@@H](Cc2ccccc2)C(=O)N1C [Example 3613] ({CH2CO}-[Phe(3,4,5-F3)][NMeF][NMeNle][dHyp]NV[NMeF]Y[dPip]WY[Orn]CG-NH2; thioether N-13) |
| 0.385 to 6.74 | 4.78 to 72.9 | – | – | CCCC[C@H]1C(=O)N(C)[C@@H](CCCC)C(=O)N[C@@H](CCCNC(=N)N)C(=O)N[C@H](C(=O)NCC(N)=O)CSCC(=O)N[C@@H](Cc2ccccc2)C(=O)N(C)[C@@H](C)C(=O)N[C@@H](CC(N)=O)C(=O)N2CCC[C@H]2C(=O)N[C@@H](Cc2cnc[nH]2)C(=O)N[C@@H](CC(C)C)C(=O)N(C)CC(=O)N[C@@H](Cc2c[nH]c3ccccc23)C(=O)N[C@@H](CCN)C(=O)N[C@@H](Cc2c[nH]c3ccccc23)C(=O)N1C [Example 5001] ({CH2CO}-F[NMeA]NPHL[Sar]W[Dab]W[NMeNle][NMeNle]RCG-NH2; thioether N-14) |
| > 30.5 | > 74.3 | – | – | CCCC[C@H]1C(=O)N(C)[C@@H](CCCC)C(=O)N[C@@H](CCCNC(=N)N)C(=O)N[C@H](C(=O)NCC(N)=O)CSCC(=O)N[C@@H](Cc2ccccc2)C(=O)N(C)[C@@H](C)C(=O)N[C@@H](CC(N)=O)C(=O)N2CCC[C@H]2C(=O)N[C@@H](Cc2cnc[nH]2)C(=O)N[C@@H](CC(C)C)C(=O)N(C)CC(=O)N[C@@H](Cc2c[nH]c3ccccc23)C(=O)N[C@@H](CN)C(=O)N[C@@H](Cc2c[nH]c3ccccc23)C(=O)N1C [Example 5002] ({CH2CO}-F[NMeA]NPHL[Sar]W[Dap]W[NMeNle][NMeNle]RCG-NH2; thioether N-14) |
| 6.76 to 30.3 | 0.158 to 4.71 | – | – | CCCC[C@H]1C(=O)N(C)[C@@H](CCCC)C(=O)N[C@@H](CC(C)C)C(=O)N[C@H](C(=O)NCC(N)=O)CSCC(=O)N[C@@H](Cc2ccc(O)cc2)C(=O)N(C)[C@@H](C)C(=O)N[C@@H](CC(N)=O)C(=O)N2CCC[C@H]2C(=O)N[C@@H](Cc2c[nH]cn2)C(=O)N[C@@H](CCC(=O)O)C(=O)N2C[C@H](O)C[C@H]2C(=O)N[C@@H](Cc2c[nH]c3ccccc23)C(=O)N[C@@H](CO)C(=O)N[C@@H](Cc2c[nH]c3ccccc23)C(=O)N1C [Example 5003] ({CH2CO}-Y[NMeA]NPHE[Hyp]WSW[NMeNle][NMeNle]LCG-NH2; thioether N-14) |
| 6.76 to 30.3 | 4.78 to 72.9 | – | – | CCCC[C@H]1C(=O)N2CCC[C@@H]2C(=O)N[C@@H](CCCNC(=N)N)C(=O)N[C@H](C(=O)NCC(N)=O)CSCC(=O)N[C@@H](Cc2ccc(O)cc2)C(=O)N(C)[C@@H](C)C(=O)N[C@@H](CC(N)=O)C(=O)N2CCC[C@H]2C(=O)N[C@@H](Cc2cnc[nH]2)C(=O)N[C@@H](CC(C)C)C(=O)N2CCC[C@H]2C(=O)N[C@@H](Cc2c[nH]c3ccccc23)C(=O)N[C@@H](CO)C(=O)N[C@@H](Cc2csc3ccccc23)C(=O)N1C [Example 5004] ({CH2CO}-Y[NMeA]NPHLPWS[Bta][NMeNle][dP]RCG-NH2; thioether N-14) |
| 6.76 to 30.3 | 4.78 to 72.9 | – | – | CCCC[C@H]1C(=O)N(C)[C@@H](COc2cccc(C)c2)C(=O)N[C@@H](CCCNC(=N)N)C(=O)N[C@H](C(=O)NCC(N)=O)CSCC(=O)N[C@@H](Cc2ccc(O)cc2)C(=O)N(C)[C@@H](C)C(=O)N[C@@H](CC(N)=O)C(=O)N2CCC[C@H]2C(=O)N[C@@H](CN)C(=O)N[C@@H](CC(C)C)C(=O)N2C[C@H](O)C[C@H]2C(=O)N[C@@H](Cc2c[nH]c3ccccc23)C(=O)N[C@@H](CO)C(=O)N[C@@H](Cc2csc3ccccc23)C(=O)N1C [Example 5005] |
| 0.385 to 6.74 | 4.78 to 72.9 | – | – | CCCC[C@H]1C(=O)N(C)[C@@H](CCCC)C(=O)N[C@@H](CCN)C(=O)N[C@H](C(=O)NCC(N)=O)CSCC(=O)N[C@@H](Cc2ccccc2)C(=O)N(C)[C@@H](C)C(=O)N[C@@H](CC(N)=O)C(=O)N2CCC[C@H]2C(=O)N[C@@H](Cc2cnc[nH]2)C(=O)N[C@@H](CC(C)C)C(=O)N(C)CC(=O)N[C@@H](Cc2c[nH]c3ccccc23)C(=O)N[C@@H](CO)C(=O)N[C@@H](Cc2c[nH]c3ccccc23)C(=O)N1C [Example 5006] ({CH2CO}-F[NMeA]NPHL[Sar]WSW[NMeNle][NMeNle][Dab]CG-NH2; thioether N-14) |
| 6.76 to 30.3 | 4.78 to 72.9 | – | – | CCCC[C@H]1C(=O)N(C)[C@@H](CCCC)C(=O)N[C@@H](CN)C(=O)N[C@H](C(=O)NCC(N)=O)CSCC(=O)N[C@@H](Cc2ccccc2)C(=O)N(C)[C@@H](C)C(=O)N[C@@H](CC(N)=O)C(=O)N2CCC[C@H]2C(=O)N[C@@H](Cc2cnc[nH]2)C(=O)N[C@@H](CC(C)C)C(=O)N(C)CC(=O)N[C@@H](Cc2c[nH]c3ccccc23)C(=O)N[C@@H](CO)C(=O)N[C@@H](Cc2c[nH]c3ccccc23)C(=O)N1C [Example 5007] ({CH2CO}-F[NMeA]NPHL[Sar]WSW[NMeNle][NMeNle][Dap]CG-NH2; thioether N-14) |
| – | – | 18.1 | 22.7 | CCCC[C@H]1C(=O)N(C)[C@@H](CCCC)C(=O)N[C@@H](CCCNC(=N)N)C(=O)N[C@H](C(=O)NCC(N)=O)CSCC(=O)N[C@@H](Cc2ccccc2)C(=O)N(C)[C@@H](C)C(=O)N[C@@H](CC(N)=O)C(=O)N2CCC[C@H]2C(=O)N[C@@H](Cc2c[nH]cn2)C(=O)N[C@@H](CC(C)C)C(=O)N(C)CC(=O)N[C@@H](Cc2c[nH]c3ccccc23)C(=O)N[C@@H]([C@@H](C)O)C(=O)N[C@@H](Cc2c[nH]c3ccccc23)C(=O)N1C [Example 5008] ({CH2CO}-F[NMeA]NPHL[Sar]WTW[NMeNle][NMeNle]RCG-NH2; thioether N-14) |
| – | > 74.3 | 30.5 | – | CCCC[C@H]1C(=O)N2CCC[C@@H]2C(=O)N[C@@H](CCCNC(=N)N)C(=O)N[C@H](C(=O)NCC(N)=O)CSCC(=O)N[C@@H](Cc2ccccc2)C(=O)N(C)[C@@H](C)C(=O)N[C@@H](CC(N)=O)C(=O)N2CCC[C@H]2C(=O)N[C@@H](Cc2cnc[nH]2)C(=O)N[C@@H](CC(C)C)C(=O)N(C)CC(=O)N[C@@H](Cc2c[nH]c3ccccc23)C(=O)N[C@@H](CO)C(=O)N[C@@H](Cc2c[nH]c3ccccc23)C(=O)N1C [Example 5009] (HELM PEPTIDE1{[O=C(C[*:3])[*:2]].F.[meA].N.P.H.L.[Sar].W.S.W.[CCCC[C@@H](C(=O)[*:2])N(C)[*:1]].[dP].R.C.G.[am]}$PEPTIDE1,PEPTIDE1,1:R3-15:R3$$$V2.0) |
| 6.76 to 30.3 | 4.78 to 72.9 | – | – | CCCC[C@H]1C(=O)N2CCC[C@@H]2C(=O)N[C@@H](CCCN)C(=O)N[C@H](C(=O)NCC(N)=O)CSCC(=O)N[C@@H](Cc2ccc(O)cc2)C(=O)N(C)[C@@H](C)C(=O)N[C@@H](CC(N)=O)C(=O)N2CCC[C@H]2C(=O)N[C@@H](Cc2cnc[nH]2)C(=O)N[C@@H](CC(C)C)C(=O)N2CCC[C@H]2C(=O)N[C@@H](Cc2c[nH]c3ccccc23)C(=O)N[C@@H](CO)C(=O)N[C@@H](Cc2csc3ccccc23)C(=O)N1C [Example 5010] ({CH2CO}-Y[NMeA]NPHLPWS[Bta][NMeNle][dP][Orn]CG-NH2; thioether N-14) |
| 6.76 to 30.3 | 4.78 to 72.9 | – | – | CCCC[C@H]1C(=O)N2CCC[C@@H]2C(=O)N[C@@H](CCCN)C(=O)N[C@H](C(=O)NCC(N)=O)CSCC(=O)N[C@@H](Cc2ccc(O)cc2)C(=O)N(C)[C@@H](C)C(=O)N[C@@H](CC(N)=O)C(=O)N2CCC[C@H]2C(=O)N[C@@H](Cc2cnc[nH]2)C(=O)N[C@@H](CC(C)C)C(=O)N2CCC[C@H]2C(=O)N[C@@H](Cc2c[nH]c3ccccc23)C(=O)N[C@@H](CO)C(=O)N[C@@H](Cc2c[nH]c3ccccc23)C(=O)N1C [Example 5011] (HELM PEPTIDE1{[O=C(C[*:3])[*:2]].Y.[meA].N.P.H.L.P.W.S.W.[CCCC[C@@H](C(=O)[*:2])N(C)[*:1]].[dP].[Orn].C.G.[am]}$PEPTIDE1,PEPTIDE1,1:R3-15:R3$$$V2.0) |
